Reference: patent US12589143B2, “Human anti-PD-L1 peptide vaccines and methods of their use” (priority 2019, dated 2026)
Where no end group is shown, it is not given here.

System: D2F2 WT tumor cells
Test: D2F2 WT tumor challenge in Balb/c mice
Type: in vivo
Procedure: Balb/c mice 6-8 weeks old, were immunized with G1 and G2 mice were treated with anti-PD-1 mAb (29F.1A12) (G1) or anti-PD-L1 mAb (10F.9G2) (G2 or with MVF-PD-L1 vaccine constructs [PD-L1(92-110)(G3) PD-L1(130-147)(G4)] prior to tumor challenge. Similarly, G10, G11 and G12 are control groups and were not treated prior to tumor cell challenge. G13, G14 and G15 mice were immunized with 100 ug MVF-HER-2(266-296)+100 ug MVF-HER-2(597-626)+ISA720 per mouse for G13, 100 ug MVF-PD-1 (92-110)+100 ug MVF-HER-2(266-296)+100 ug MVF-HER-2(597-626)+ISA720 per mouse for G14 and 100 ug MVF-PD-L1 (130-147)+100 ug MVF-HER-2(266-296)+100 ug MVF-HER-2(597-626)+ISA720 per mouse for G15. The mice were immunized up to 4 times before tumor challenge. […] All the mice had been monitored at least twice per week, and the tumors were measured with calipers as data indicated.
The tumor volumes were measured by calipers and calculated by formula: (length×width2)/2. […] All the peptides immunized groups of mice are shown with less tumor burden than PBS group and mAbs treated groups as well.
G0, G1 and G2 are control groups, mice in these groups were not treated before tumor cells challenge. Following challenge with D2F2 WT tumor cells, G0 mice were treated with PBS (i.p.) twice per week start from day 2 post challenge served as negative control, G1 and G2 mice were treated with anti-PD-1 mAb (29F.1A12) or anti-PD-L1 mAb (10F.9G2), respectively. Treatment for G1 and G2 mouse groups was also started from day 2 post tumor challenge, with 100 ug administered/mouse twice a week. G1 and G2 served as positive control. […] All the mice had been monitored at least twice per week, and the tumors were measured with calipers as data indicated (FIG. 26).
Mice were immunized with designed peptides vaccines as descripted in FIG. 26, which indicated as 1Y, 2Y, 3Y and 4Y here and with 3 weeks apart. […] And the mice were monitor at least twice per week, and the tumors were measured as shown in the data figures.
The tumor volumes were measured by calipers and calculated by formula: (length×width2)/2. […]

Sequence: KLLSLIKGVIVHRLEGVEGPSLVTSEHELTCQAEGYPKAE (KLLSLIKGVIVHRLEGVEGPSLVTSEHELTCQAEGYPKAE-NH2) [PD-L1(130)]
- mice survival (after day 45 of tumor challenge): about 60%
- tumor volume (day 21 and day 28): smaller tumor volume than PBS negative control group and both of mAbs positive control groups
